ChEMBL document CHEMBL1130355, “Trypanocidal activity and redox potential of heterocyclic- and 2-hydroxy-naphthoquinones” (1997)

Key:
Assay type in all cases: functional
Mus musculus [1] = organism: Mus musculus; assay: Tested for its ability to eliminate the infective trypomastigote form of Trypanosoma cruzi, Y strain present in blood of infected mice at the dose of 0.21 mM
Mus musculus [2] = organism: Mus musculus; assay: Tested for its ability to eliminate the infective trypomastigote form of Trypanosoma cruzi, Y strain present in blood of infected mice at the dose of 0.22 mM
Mus musculus [3] = organism: Mus musculus; assay: Tested for its ability to eliminate the infective trypomastigote form of Trypanosoma cruzi, Y strain present in blood of infected mice at the dose of 0.20 mM
Mus musculus [4] = organism: Mus musculus; assay: Tested for its ability to eliminate the infective trypomastigote form of Trypanosoma cruzi, Y strain present in blood of infected mice at the dose of 0.18 mM
Mus musculus [5] = organism: Mus musculus; assay: Tested for its ability to eliminate the infective trypomastigote form of Trypanosoma cruzi, Y strain present in blood of infected mice at the dose of 0.50 mM
Mus musculus [6] = organism: Mus musculus; assay: Tested for its ability to eliminate the infective trypomastigote form of Trypanosoma cruzi, Y strain present in blood of infected mice at the dose of 0.19 mM
Mus musculus [7] = organism: Mus musculus; assay: Tested for its ability to eliminate the infective trypomastigote form of Trypanosoma cruzi, Y strain present in blood of infected mice at the dose of 0.24 mM
Mus musculus [8] = organism: Mus musculus; assay: Tested for its ability to eliminate the infective trypomastigote form of Trypanosoma cruzi, Y strain present in blood of infected mice at the dose of 0.25 mM
Mus musculus [9] = organism: Mus musculus; assay: Tested for its ability to eliminate the infective trypomastigote form of Trypanosoma cruzi, Y strain present in blood of infected mice at the dose of 0.12 mM
Mus musculus [10] = organism: Mus musculus; assay: Tested for its ability to eliminate the infective trypomastigote form of Trypanosoma cruzi, Y strain present in blood of infected mice at the dose of 0.29 mM
Mus musculus [11] = organism: Mus musculus; assay: Tested for its ability to eliminate the infective trypomastigote form of Trypanosoma cruzi, Y strain present in blood of infected mice at the dose of 0.23 mM

**Q.** How did the Lysis (Mus musculus [1]) turn out when `CC(C)c1cc2c(o1)C(=O)c1ccccc1C2=O` was run?
**A.** 88%

**Q.** Which Lysis (Mus musculus [2]) does the source give for `CC/C=C/C1=C(O)C(=O)c2ccccc2C1=O` here?
**A.** 68%

**Q.** With `COc1cccc2c1C(=O)c1ccsc1C2=O` as the compound, how does the Lysis (Mus musculus [3]) read?
**A.** 0%

**Q.** `COc1ccc2c(c1OC)C(=O)c1sccc1C2=O` was tested. Which Lysis (Mus musculus [4]) did it give?
**A.** 19%

**Q.** Which Lysis (Mus musculus [5]) does the source give for `O=C1C(=O)c2ccoc2-c2ccccc21` here?
**A.** 100%

**Q.** For `COc1cccc2c1C(=O)c1sccc1C2=O`, which Lysis (Mus musculus [3]) is on record?
**A.** 26%

**Q.** With `COc1cccc2c1C(=O)c1ccoc1C2=O` as the compound, how does the Lysis (Mus musculus [2]) read?
**A.** 52%

**Q.** With `O=C1c2ccccc2C(=O)c2sc([N+](=O)[O-])cc21` as the compound, how does the Lysis (Mus musculus [6]) read?
**A.** 54%

**Q.** Which Lysis (Mus musculus [7]) does the source give for `Cc1cc2c(o1)C(=O)c1ccccc1C2=O` here?
**A.** 18%

**Q.** Which Lysis (Mus musculus [2]) does the source give for `CCc1cc2c(o1)C(=O)c1ccccc1C2=O` here?
**A.** 24%

**Q.** For `O=C1c2ccccc2C(=O)c2occc21`, which Lysis (Mus musculus [8]) is on record?
**A.** 33%

**Q.** Which Lysis (Mus musculus [1]) does the source give for `CC(C)/C=C/C1=C(O)C(=O)c2ccccc2C1=O` here?
**A.** 81%

**Q.** Which Lysis (Mus musculus [2]) does the source give for `CCc1cc2c(o1)-c1ccccc1C(=O)C2=O` here?
**A.** 94%

**Q.** Which Lysis (Mus musculus [3]) does the source give for `COc1ccc2c(c1)C(=O)c1ccsc1C2=O` here?
**A.** 9%

**Q.** Which Lysis (Mus musculus [4]) does the source give for `COc1cc(OC)c2c(c1)C(=O)c1sccc1C2=O` here?
**A.** 19%

**Q.** With `CC(C)c1cc2c(o1)-c1ccccc1C(=O)C2=O` as the compound, how does the Lysis (Mus musculus [1]) read?
**A.** 94%

**Q.** With `CC1(C)CCC2=C(O1)C(=O)c1ccccc1C2=O` [ALPHA-LAPACHONE] as the compound, how does the Lysis (Mus musculus [1]) read?
**A.** 48%

**Q.** For `CN(C)c1ccc(C(=C2C=CC(=[N+](C)C)C=C2)c2ccc(N(C)C)cc2)cc1.[Cl-]` [GENTIAN VIOLET], which Lysis (Mus musculus [9]) is on record?
**A.** 100%

**Q.** `CC(C)=CCC1=C(O)C(=O)c2ccccc2C1=O` [LAPACHOL] was tested. Which Lysis (Mus musculus [1]) did it give?
**A.** 65%

**Q.** With `CC1(C)CCC2=C(O1)c1ccccc1C(=O)C2=O` [LAPACHONE] as the compound, how does the Lysis (Mus musculus [1]) read?
**A.** 76%

**Q.** Which Lysis (Mus musculus [10]) does the source give for `O=C1C=C(O)C(=O)c2ccccc21` [LAWSONE] here?
**A.** 76%

**Q.** With `O=C1c2ccccc2C(=O)c2sccc21` [THIOPHENONAPHTHOQUINONE] as the compound, how does the Lysis (Mus musculus [11]) read?
**A.** 13%
